In patent US6713266B1 (Isodiagnostika Inc., priority 1998, dated 2004):

Key:
[1] = test system: Mouse polyclonal sera (CSA-DVS-KLH immunogen); experiment: Inhibition ELISA, CSA-DVS-HSA coated plate, mouse polyclonal sera; format: binding
Experimental: (§1) Inhibition ELISA Protocol:
(§2) 1. Use Falcon Pro-bind immunoplates.
(§3) 2. Dilute coating antigen to 1 μg/mL in carbonate-bicarbonate buffer. Add 100 μL per well and incubate overnight at 4° C.
(§4) 3. On the same day prepare inhibiting antigen tubes. Aliquot antibodies into glass test tubes. Prepare appropriate antigen concentration in ethanol and add to aliquoted antibody at 10 μL ethanol solution/250 μL antibody. Vortex tubes and incubate overnight at 4° C.
(§5) 4. Shake out wells and wash 3× with 200 μL PBS/0.05% TWEEN™ (polyoxyethylene-sorbitol) (v/v) per well.
(§6) 5. Add 200 μL blocking buffer per well (PBS/2% BSA (w/v)). Incubate 60 min at room temperature.
(§7) 7. Transfer contents of inhibition tubes to antigen-coated plate, 100 μL per well. Incubate 60 min at 37° C.
(§8) 9. […] Add 100 μL per well and incubate at 37° C. for 60 min.
(§9) 11. […] Add 100 μL per well and incubate in the dark at room temperature. Absorbance can be read at 405 nm at approximately 15-min intervals.

[2] = test system: Mouse monoclonal antibody AM19-1-7E12-1; experiment: Antigen panel (direct) ELISA, MoAb tissue culture supernatant; format: binding
Experimental: (§10) 1. Use Falcon Pro-bind immunoplate.
(§11) 2. Dilute coating antigen (Ag) to 1.0 μg/mL in carbonate-bicarbonate buffer. Use glass tubes.
(§12) 3. Add 100 μL to each well of plate. Store overnight at 4° C.
as §5
(§13) 5. Add blocking buffer, 200 μL per well (PBS/2% BSA (w/v)). Incubate for 60 min at 37° C.
(§14) 7. Add 100 μL per well of test antibody appropriately diluted in PBS/0.1% Tween (v/v). Incubate 60 min at 37° C.
(§15) 9. Dilute alkaline phosphatase conjugated anti-mouse IgG (Pierce cat #31322) in PBS/0.1% TWEEN™ (polyoxyethylene-sorbitol) (v/v) to 1:2000 concentration. Add 100 μL per well and incubate at 37° C. for 60 min.
(§16) 10. Wash 3× as in step 4.
as §9
(§17) Spleen cells from mice immunized with the AM19-1-DVS (1) conjugate have been used to prepare MoAb secreting hybridoma cells.

[3] = test system: Mouse monoclonal antibody AM19-1-7E12-2; experiment: as above; format: binding
Experimental: as §10, §11, §12, §5, §13, §14, §15, §16, §9, §17

[4] = test system: Mouse polyclonal sera (AM9-9-DVS-KLH immunogen); experiment: Antigen panel (direct) ELISA, mouse polyclonal sera; format: binding
Experimental: as §10, §11, §12, §5, §13, §14, §15, §16, §9

[5] = test system: Mouse polyclonal sera (CSA-DVS-KLH immunogen); experiment: as above; format: binding; conditions: KLH coated ELISA plates
Experimental: as §10, §11, §12, §5, §13, §14, §15, §16, §9

[6] = test system: Mouse polyclonal sera (AM1-DVS-KLH immunogens); experiment: as above; format: binding
Experimental: as §10, §11, §12, §5, §13, §14, §15, §16, §9

[7] = test system: Mouse polyclonal sera (AM19-9-DVS-KLH immunogens); experiment: as above; format: binding
Experimental: as §10, §11, §12, §5, §13, §14, §15, §16, §9

MoAb CSA-2G9 = experiment: Inhibition ELISA to the CSA-DVS-HSA conjugate, MoAb; format: binding, mouse; conditions: CSA-2G9 TCS; Table 16; CSA-DVS-HSA conjugate
Experimental: as §1, §2, §3, §4, §5, §6, §7
(§18) 9. Dilute alkaline phosphatase conjugated anti-mouse IgG (Pierce cat#31322) in PBS/0.1% TWEEN™ (polyoxyethylene-sorbitol) (v/v) to 1:5000 concentration. Add 100 μL per well and incubate at 37° C. for 60 min.
as §9

MoAb CSA-1H6 = experiment: as above; format: binding, mouse; conditions: CSA-1H6 TCS; Table 16; CSA-DVS-HSA conjugate
Experimental: as §1, §2, §3, §4, §5, §6, §7, §18, §9

MoAb AM1-2E10 = experiment: as above; format: binding, mouse; conditions: AM1-2E10 TCS; Table 18; CSA-DVS-HSA coated plate
Experimental: as §1, §2, §3, §4, §5, §6, §7, §8, §9

MoAb AM1-7F5 = experiment: as above; format: binding, mouse; conditions: AM1-7F51; TCS; Table 18; CSA-DVS-HSA coated plate
Experimental: as §1, §2, §3, §4, §5, §6, §7, §8, §9

MoAb AM19-1-7E12-2 = experiment: Inhibition ELISA with AM19-1-DVS (1) coated ELISA plates, MoAb; format: binding, mouse; conditions: AM19-1-7F12-2
Experimental: as §1, §2, §3, §4, §5, §6, §7, §8, §9

MoAb AM19-1-7E12-1 = experiment: as above; format: binding, mouse; conditions: AM19-1-7E12-1 TCS
Experimental: as §1, §2, §3, §4, §5, §6, §7, §8, §9

[8] = test system: Mouse polyclonal sera (AM1-DVS-KLH immunogen); experiment: Inhibition ELISA to the CSA-DVS-HSA conjugate, mouse polyclonal sera; format: binding
Experimental: as §1, §2, §3, §4, §5, §6, §7, §8, §9

[9] = test system: Mouse polyclonal sera (AM19-1-DVS (1) - KLH immunogen); experiment: Inhibition ELISA, AM19-1-DVS (1) HSA coated plate, mouse polyclonal sera; format: binding
Experimental: as §1, §2, §3, §4, §5, §6, §7, §8, §9

[10] = test system: Mouse polyclonal sera (AM9-9-DVS-KLH immunogen); experiment: Inhibition ELISA, AM19-9-DVS-HSA coated plate, mouse polyclonal sera; format: binding
Experimental: as §1, §2, §3, §4, §5, §6, §7, §8, §9

[11] = test system: Mouse polyclonal sera (AM19-1-DVS (2) - KLH immunogen); experiment: Inhibition ELISA, AM19-1-DVS (2) HSA coated plate, mouse polyclonal sera; format: binding
Experimental: as §1, §2, §3, §4, §5, §6, §7, §8, §9

[12] = test system: Mouse monoclonal antibody AM1-2E10; experiment: Antigen panel (direct) ELISA, MoAb tissue culture supernatant; format: binding
Experimental: as §10, §11, §12, §5, §13, §14, §15, §16, §9

[13] = test system: Mouse monoclonal antibody CSA-2G9; experiment: as above; format: binding
Experimental: as §10, §11, §12, §5, §13, §14, §15, §16, §9

[14] = test system: Mouse monoclonal antibody AM1-7F5; experiment: as above; format: binding
Experimental: as §10, §11, §12, §5, §13, §14, §15, §16, §9

[15] = test system: Mouse monoclonal antibody CSA-1H6; experiment: as above; format: binding
Experimental: as §10, §11, §12, §5, §13, §14, §15, §16, §9

[16] = test system: Mouse polyclonal sera (AM19-1-DVS (1) - KLH immunogen); experiment: Antigen panel (direct) ELISA, mouse polyclonal sera; format: binding; conditions: Mice 1 and 2
Experimental: as §10, §11, §12, §5, §13, §14, §15, §16, §9
(§19) These serum samples were assayed by direct ELISA for antibody titre to specific haptens.

[17] = test system: Mouse polyclonal sera (AM19-1-DVS (2) - KLH immunogen); experiment: as above; format: binding; conditions: Mice 3 and 4
Experimental: as §10, §11, §12, §5, §13, §14, §15, §16, §9, §19

[18] = test system: Mouse polyclonal sera (AM19-9-DVS-KLH immunogen); experiment: Inhibition ELISA, AM19-9-DVS-HSA coated plates, mouse polyclonal sera; format: binding
Experimental: as §1, §2, §3, §4, §5, §6, §7, §8, §9

[19] = test system: Rabbit polyclonal sera (AM19-1-DVS-KLH (1) immunogen); experiment: Inhibition ELISA, AM19-1-DVS (1) HSA coated plate, rabbit polyclonal sera; format: binding
Experimental: as §1, §2, §3, §4, §5, §6, §7, §8, §9
The AM19-1-DVS (1) conjugate was also used to immunize rabbits.

[20] = Mouse 1, inhibiting AG conc 0.156 μg/100 μL
[21] = Mouse 1, inhibiting AG conc 0.313 μg/100 μL
[22] = Mouse 1, inhibiting AG conc 1.25 μg/100 μL
[23] = Mouse 1, inhibiting AG conc 5 μg/100 μL
[24] = Mouse 1, inhibiting AG conc 10 μg/100 μL
[25] = Mouse 2, inhibiting AG conc 0.156 μg/100 μL
[26] = Mouse 2, inhibiting AG conc 0.313 μg/100 μL
[27] = Mouse 2, inhibiting AG conc 1.25 μg/100 μL
[28] = Mouse 2, inhibiting AG conc 5 μg/100 μL
[29] = Mouse 2, inhibiting AG conc 10 μg/100 μL

FK-DVS-KLH: FK-DVS-KLH conjugate used as inhibitor
Percent Inhibition [1, 20]: 0%
Percent Inhibition [1, 21]: 0%
Percent Inhibition [1, 22]: 0%
Percent Inhibition [1, 23]: 0%
Percent Inhibition [1, 24]: 0%
Percent Inhibition [1, 25]: 0%
Percent Inhibition [1, 26]: 0%
Percent Inhibition [1, 27]: 0%
Percent Inhibition [1, 28]: 0%
Percent Inhibition [1, 29]: 0%

KLH: keyhole limpet hemocyanin, protein carrier
Percent reactivity ([2]; AM19-1-7E12-1, OD to test antigen / OD to AM19-1-DVS (1)-HSA × 100): 0%
OD ([2]; AM19-1-7E12-1 TCS, coated test antigen): 0.023
Percent reactivity ([3]; AM19-1-7E12-2, OD to test antigen / OD to AM19-1-DVS (1)-HSA × 100): 0%
OD ([3]; AM19-1-7E12-2 TCS, coated test antigen): 0
antibody titres to the KLH carrier protein [4]: significant antibody titres
antibody response to the KLH carrier [5]: significant response
antibody response to the KLH carrier [6]: significant response
antibody titres to the KLH carrier [7]: Significant antibody titres
Percent Inhibition of TCS (MoAb CSA-2G9): 4.8%
Percent Inhibition of TCS (MoAb CSA-1H6): 0%
Percent Inhibition of TCS (MoAb AM1-2E10): 0%
Percent Inhibition of TCS (MoAb AM1-7F5): 22.5%
Percent Inhibition of TCS (MoAb AM19-1-7E12-2): 4.3%
Percent Inhibition of TCS (MoAb AM19-1-7E12-1): 3.8%
Percent Inhibition ([8]; Mouse 1): 8.9%
Percent Inhibition ([8]; Mouse 2): 5.8%
Percent Inhibition [1, 20]: 0%
Percent Inhibition [1, 21]: 0%
Percent Inhibition [1, 22]: 0%
Percent Inhibition [1, 23]: 0%
Percent Inhibition [1, 24]: 0%
Percent Inhibition [1, 25]: 0%
Percent Inhibition [1, 26]: 0%
Percent Inhibition [1, 27]: 0%
Percent Inhibition [1, 28]: 0%
Percent Inhibition [1, 29]: 0%
Percent Inhibition ([9]; Mouse 1): 0%
Percent Inhibition ([9]; Mouse 2): 0%
Percent Inhibition ([10]; Mouse 1): 12.3%
Percent Inhibition ([10]; Mouse 2): 35.8%
Percent Inhibition ([11]; Mouse 3): 0%
Percent Inhibition ([11]; Mouse 4): 0%
Percent reactivity ([12]; AM1-2E10, OD to test antigen / OD to CSA-DVS-HSA × 100): 3.9%
OD ([12]; AM1-2E10 TCS, coated test antigen): 0.061
Percent reactivity ([13]; CSA-2G9, OD to test antigen / OD to CSA-DVS-HSA × 100): 0%
OD ([13]; CSA-2G9 TCS, coated test antigen): 0.026
Percent reactivity ([14]; AM1-7F5, OD to test antigen / OD to CSA-DVS-HSA × 100): 0%
OD ([14]; AM1-7F5 TCS, coated test antigen): 0
Percent reactivity ([15]; CSA-1H6, OD to test antigen / OD to CSA-DVS-HSA × 100): 0%
OD ([15]; CSA-1H6 TCS, coated test antigen): 0
antibody titres to the KLH carrier protein [16]: significant antibody titres
antibody titres to the KLH carrier protein [17]: significant antibody titres
Percent Inhibition ([18]; Mouse 5): 0%
Percent Inhibition ([18]; Mouse 6): 0%
Percent Inhibition [19]: 0%
